The structures appear in SMILES notation.

Assay [1] concerns the target T1, human FAAH (Homo sapiens, UniProt O00519).
T1 construct: The full length FAAH was subcloned into the mammalian expression vector, pcDEF.neo, using XbaI and EcoRI restriction sites; expressed in transfected cells
T1 sequence (O00519 1-579): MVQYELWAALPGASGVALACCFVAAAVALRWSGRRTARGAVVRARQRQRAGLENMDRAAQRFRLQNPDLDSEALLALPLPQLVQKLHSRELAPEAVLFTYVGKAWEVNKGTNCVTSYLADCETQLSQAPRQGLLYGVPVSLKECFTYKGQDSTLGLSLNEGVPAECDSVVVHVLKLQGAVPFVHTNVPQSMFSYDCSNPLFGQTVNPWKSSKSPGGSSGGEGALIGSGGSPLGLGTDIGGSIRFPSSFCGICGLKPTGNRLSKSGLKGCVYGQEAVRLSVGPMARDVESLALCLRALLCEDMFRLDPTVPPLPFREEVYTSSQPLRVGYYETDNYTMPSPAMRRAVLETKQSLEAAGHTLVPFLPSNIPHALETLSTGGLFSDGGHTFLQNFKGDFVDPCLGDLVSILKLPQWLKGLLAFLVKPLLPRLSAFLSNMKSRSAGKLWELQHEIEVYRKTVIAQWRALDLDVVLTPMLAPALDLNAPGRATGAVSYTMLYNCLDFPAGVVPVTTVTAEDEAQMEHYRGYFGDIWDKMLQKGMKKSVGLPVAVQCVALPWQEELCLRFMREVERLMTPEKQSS
In words: FAAH whole cell assay (human Whole cell, FAAH_CHO, AAMCA substrate). Conditions: CHO cells expressing human FAAH, whole cell format; read-out: human cell_IC50. Type of assay: cell-based. An excerpt:
(§1) To assist in assay development stable cell lines for human, murine and rat full length FAAH were developed. Human FAAH cDNA (Accession No: NM_001441.1) was purchased from Origene (Rockville, Md.). The full length FAAH was subcloned into the mammalian expression vector, pcDEF.neo, using XbaI and EcoRI restriction sites and used for stable cell line generation.
Murine (accession number NM_010173) and Rat FAAH (accession number NM_024132) was amplified by reverse transcriptase polymerase chain reaction (RT-PCR) from brain cDNA (BD Biosciences, San Jose, Calif.) using primers 1 and 2 or primers 1 and 3 respectively (see Table). The resulting PCR product was ligated into pCR4 TOPO and DNA sequence confirmed. The full length murine FAAH was subcloned into the mammalian expression vector, pcDEFneo using either EcoRI (murine) or KpnI and EcoRI (rat) restriction sites. Chinese hamster ovary cells (CHO) were transfected following manufacturers protocol (AMAXA). Forty eight hours post transfection, cells were trypsinized and transferred to 96 well plates in Iscove's DMEM media supplemented with 2 mM Glutamine, 10% fetal calf serum, 1 mg/ml geneticin and HT Supplement (0.1 mM sodium hypoxanthine, 0.016 mM thymidine) in order to isolate single clones. Following selection in geneticin, individual clones were selected and FAAH activity was assessed using a whole cell fluorescent anandamide assay, modified from Ramarao et al (2005). Following removal of tissue culture media cells were dislodged following addition of Cellstripper (Mediatech, Inc. Manassas, Va.) and transferred to 96 well black clear bottom assay plate, centrifuged at 1,000 rpm for 3 mins and media removed and replaced with assay buffer (50 mM Tris pH8.0, 1 mM EDTA, 0.1% fatty acid free BSA). The reaction was initiated by addition of fluorescent substrate, AMC Arachidonoyl Amide (Cayman Chemical, Ann Arbor, Mich.) to 1 μM and reaction allowed to proceed for 2 hours at room temperature. Release of fluorescence was monitored in a CytoFluor Multiplate Reader. Cells expressing the highest amount of FAAH activity were selected for study with FAAH inhibitors.
(§2) Assays are performed on either cell lysate or microsome fractions prepared as described or in whole cell format employing either the fluorescent substrate AAMCA (Cayman chemical, Ann Arbor, Mich.) or ^3H-anandamide ([ETHANOLAMINE-1-3H] American Radiolabeled Chemicals; 1 mCi/ml). The cell lysate or microsome assay is performed in black PerkinElmer OptiPlates-384F by adding FAAH_CHO (whole cell (shown as human Whole cell or Human WC), cell lysate (shown as human lysate of human LY) or microsome) in assay buffer (50 mM Phosphate, pH 8.0, 1 mM EDTA, 200 mM KCl, 0.2% glycerol, 0.1% fatty acid free BSA) to each well, followed by either DMSO or compound and allowed to incubate at 22-25° C. for fifteen minutes. AAMCA substrate was used to achieve a final concentration of 1 μM and reaction allowed to proceed at room temperature for 1-3 hours. Fluorescent release as a measure of FAAH activity was monitored by reading the plate in an Envision plate Reader (Ex: 360/40 nM; Em: 460/40 nM). Whole cell assay is conducted with cells harvested after rinsing tissue culture flasks three times with Ca^++Mg^++ free PBS, incubating for 10 min in Enzyme free dissociation media and centrifuging for 5 minutes at 1,000 rpm in table top centrifuge. Cells are resuspended in assay buffer at desired cell number in (4×10^4 cells/assay in 96-well format; 1×10^4 cells/assay in 384-well format) and assayed as described.

The target in assay [2] is T1, human FAAH. In words: FAAH cell lysate assay (human lysate, FAAH_CHO, AAMCA substrate). The note with it: lysate of CHO cells expressing human FAAH; read-out: human lysate_IC50. Type of assay: biochemical.
From the text: as §1
CHO cells expressing FAAH were used to prepare either crude cell lysate or microsome fractions. To harvest cells, tissue culture media was decanted, the monolayer washed three times with Ca^++Mg^++ free PBS and cells recovered after 15 mm in enzyme free dissociation media (Millipore Corp, Billerica, Mass.). Cells were collected by centrifuging at 2000 rpm for 15 min. and the cell pellet re-suspended with 50 mM HEPES (pH 7.4) containing 1 mM EDTA and the protease inhibitors aprotinin (1 mg/ml) and leupeptin (100 μM). The suspension was sonicated at 4° C. and the cell lysate recovered after centrifuging at 12,000×g (14,600 rpm, SS34 rotor) for 20 min at 4° C. to form a crude pellet of cell debris, nuclei, peroxisomes, lysosomes, and mitochondria; the supernatant or cell lysate was used for FAAH enzyme assay. In some cases, microsomes fractions enriched in FAAH were prepared by centrifuging the cell lysate further at 27,000 rpm (100,000×g) in SW28 rotor for 50 minutes at 4° C. The pellet containing FAAH-enriched microsomes was re-suspend in 50 mM HEPES, (pH 7.4) 1 mM EDTA, and any remaining DNA sheared by passage of material through a 23 gauge needle and aliquots of enzyme were store at −80° C. prior to use.
(American Radiolabeled Chemicals; 1 mCi/ml) with FAAH (Life Sciences (1995), 56, 1999-2005 and Journal of Pharmacology and Experimented Therapeutics (1997), 283, 729-734), Analytical. Biochemistry (2003), 318:270-5. In addition, routine assays were performed monitoring hydrolysis of araehidonyl-7-amino-4-methylcoumarin amide (AAMCA) by following increase in fluorescence upon release of 7-amino 4-methyl coumarin (λEX=355 nm, (λEM=460 nm). Analytical. Biochemistry (2005). 343:143-51
as §2

As to `O[C@H]1CC[C@H](NCc2nc(-c3ccc(F)cc3)oc2Sc2ccc(Cl)cn2)CC1` [Example B5.9, trans-4-[({5-[(5-chloropyridin-2-yl)sulfanyl]-2-(4-fluorophenyl)-1,3-oxazol-4-yl}methyl)amino] cyclohexanol], the IC50 in assay [1] turned out to be 139 nM; in assay [2], 45 nM.

In the case of `COC(=O)[C@H]1CC[C@H](NCc2nc(-c3ccc(F)cc3)oc2Sc2ccc(Cl)cn2)CC1` [Example B5.10, methyl trans-4-{({5-[(5-chloropyridin-2-yl)sulfanyl]-2-(4-fluorophenyl)-1,3-oxazol-4-yl}methyl)amino] cyclohexanecarboxylate], the figures for the IC50 in assay [1] and in assay [2] were 31 nM and 12 nM, respectively.

For the molecule `COC(=O)c1ccc(OC(C)c2nc(-c3ccc(F)cc3)oc2Sc2ccc(Cl)cn2)cc1` (stereo not drawn) [Example B7.1, methyl 4-(1-{5-[(5-chloropyridin-2-yl)sulfanyl]-2-(4-fluorophenyl)-1,3-oxazol-4-yl}ethoxy)benzoate], the IC50 was found to be 39 nM in assay [1] and 8 nM in assay [2].

For the molecule `CNC(=O)c1ccc(OC(C)c2nc(-c3ccc(F)cc3)oc2Sc2ccc(Cl)cn2)cc1` (stereo not drawn) [Example B7.2, 4-(1-{5-[(5-chloropyridin-2-yl)sulfanyl]-2-(4-fluorophenyl)-1,3-oxazol-4-yl}ethoxy)-N-methylbenzamide], the IC50 in assay [1] worked out at 80 nM; in assay [2], 21 nM.

For the molecule `COC(=O)c1ccc(OCc2nc(C3CC3)oc2Sc2ccc(Cl)cn2)cc1` [Example D4.1, methyl 4-({5-[(5-chloropyridin-2-yl)sulfanyl]-2-cyclopropyl-1,3-oxazol-4-yl}methoxy)benzoate], the IC50 stood at 1310 nM in assay [1] and 187 nM in assay [2].

Turning to `Clc1ccc(Sc2oc(C3CC3)nc2COc2ccc3[nH]ncc3c2)nc1` [Example D4.2, 5-({5-[(5-chloropyridin-2-yl)sulfanyl]-2-cyclopropyl-1,3-oxazol-4-yl}methoxy)-1H-indazole], the IC50 amounted to 979 nM in assay [1] and 317 nM in assay [2].

These data come from patent publication US9073879B2, “Oxazole derivatives useful as modulators of FAAH” (MERCK SHARP & DOHME CORP., priority 2010, dated 2015).
